Data from US10806785B2, “Immunomodulator compounds and methods of use” (Incyte Corporation, priority 2016, dated 2020).

Each molecule was assayed against PD-1/PD-L1 (Homo sapiens (Human), UniProt Q9NZQ7) (assay: PD-1/PD-L1 binding assay (HTRF)).
Method in brief: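 HTRF read-out (665/620 nm) after 60 min at 25 °C with 1 nM Eu anti-human IgG and 20 nM APC anti-His. Beforehand, inhibitors were preincubated 40 min with Fc-PD-1 (25-167, […] as listed) and His-PD-L1 (19-238, 10 nM) in PBS pH 7.4 with Tween-20, BSA, 1% DMSO; IC50 from log-concentration curve.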

PD-1/PD-L1, sequence (Q9NZQ7 19-238): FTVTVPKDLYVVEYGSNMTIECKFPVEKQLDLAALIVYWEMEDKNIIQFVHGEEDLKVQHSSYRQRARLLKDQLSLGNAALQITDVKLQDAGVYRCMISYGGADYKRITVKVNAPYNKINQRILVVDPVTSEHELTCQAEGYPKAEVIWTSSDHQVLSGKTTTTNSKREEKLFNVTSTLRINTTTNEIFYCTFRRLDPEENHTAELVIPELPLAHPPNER

IC50, ≤ 10 nM:
CN1CCc2c(nc(C(=O)Nc3cccc(-c4cccc(NC(=O)c5nc6c(n5C)CCN(C[C@H]5CC[C@H](C(=O)O)CC5)C6)c4Cl)c3Cl)n2C)C1 [Example 60, trans-4-((2-(2,2′-dichloro-3′-(1,5-dimethyl-4,5,6,7-tetrahydro-1H-imidazo[4,5-c]pyridine-2-carboxamido)biphenyl-3-ylcarbamoyl)-1-methyl-6,7-dihydro-1H-imidazo[4,5-c]pyridin-5(4H)-yl)methyl)cyclohexane-1-carboxylic acid]
CCN1CCc2c(nc(C(=O)Nc3cccc(-c4cccc(NC(=O)c5nc6c(n5C)CCN(CC[C@H]5CC[C@H](C(=O)O)CC5)C6)c4C#N)c3Cl)n2C)C1 [Compound 154, trans-4-(2-(2-((2′-chloro-2-cyano-3′-(5-ethyl-1-methyl-4,5,6,7-tetrahydro-1H-imidazo[4,5-c]pyridine-2-carboxamido)-[1,1′-biphenyl]-3-yl)carbamoyl)-1-methyl-1,4,6,7-tetrahydro-5H-imidazo[4,5-c]pyridin-5-yl)ethyl)cyclohexane-1-carboxylic acid]
Cc1c(NC(=O)c2nc3c(n2C)CCN(C2CCC(C)(C(=O)O)CC2)C3)cccc1-c1cccc(NC(=O)c2nc3c(n2C)CCN(C)C3)c1Cl (stereo not shown) [Example 35, 4-(2-(2′-chloro-3′-(1,5-dimethyl-4,5,6,7-tetrahydro-1H-imidazo[4,5-c]pyridine-2-carboxamido)-2-methylbiphenyl-3-ylcarbamoyl)-1-methyl-6,7-dihydro-1H-imidazo[4,5-c]pyridin-5(4H)-yl)-1-methylcyclohexanecarboxylic acid]
CCN1CCc2c(nc(C(=O)Nc3cccc(-c4cccc(NC(=O)c5nc6c(n5C)CCN(C[C@H]5CC[C@@H](C(=O)O)CC5)C6)c4Cl)c3Cl)n2C)C1 [Example 70, cis-4-((2-((2,2′-dichloro-3′-(5-ethyl-1-methyl-4,5,6,7-tetrahydro-1H-imidazo[4,5-c]pyridine-2-carboxamido)-[1,1′-biphenyl]-3-yl)carbamoyl)-1-methyl-1,4,6,7-tetrahydro-5H-imidazo[4,5-c]pyridin-5-yl)methyl)cyclohexane-1-carboxylic acid]
Cc1c(NC(=O)c2nc3c(n2C)CCN(C[C@H](C)O)C3)cccc1-c1cccc(NC(=O)c2nc3c(n2C)CCN(CC2CC2)C3)c1Cl [Example 46, (S)—N-(2-chloro-3′-(5-(2-hydroxypropyl)-1-methyl-4,5,6,7-tetrahydro-1H-imidazo[4,5-c]pyridine-2-carboxamido)-2′-methylbiphenyl-3-yl)-5-(cyclopropylmethyl)-1-methyl-4,5,6,7-tetrahydro-1H-imidazo[4,5-c]pyridine-2-carboxamide]
Cc1c(-c2nc3c(o2)CN(C(=O)CN2CCC(C(=O)O)CC2)C3)cccc1-c1cccc(NC(=O)c2nc3c(n2C)CCN(C)C3)c1Cl [Compound 167, 1-(2-(2-(2′-chloro-3′-(1,5-dimethyl-4,5,6,7-tetrahydro-1H-imidazo[4,5-c]pyridine-2-carboxamido)-2-methyl-[1,1′-biphenyl]-3-yl)-4,6-dihydro-5H-pyrrolo[3,4-d]oxazol-5-yl)-2-oxoethyl)piperidine-4-carboxylic acid]
Cn1c(C(=O)Nc2cccc(-c3cccc(NC(=O)c4nc5c(n4C)CCN(C4CCOCC4)C5)c3Cl)c2Cl)nc2c1CCN(CCc1ccc(C(=O)O)cc1)C2 [Example 96, 4-(2-(2-((2,2′-dichloro-3′-(1-methyl-5-(tetrahydro-2H-pyran-4-yl)-4,5,6,7-tetrahydro-1H-imidazo[4,5-c]pyridine-2-carboxamido)-[1,1′-biphenyl]-3-yl)carbamoyl)-1-methyl-1,4,6,7-tetrahydro-5H-imidazo[4,5-c]pyridin-5-yl)ethyl)benzoic acid]
Cn1c(C(=O)Nc2cccc(-c3cccc(NC(=O)c4nc5c(n4C)CCN(C4CCCCC4)C5)c3Cl)c2Cl)nc2c1CCN(CC[C@H]1CC[C@H](C(=O)O)CC1)C2 [Example 91, trans-4-(2-(2-((2,2′-dichloro-3′-(5-cyclohexyl-1-methyl-4,5,6,7-tetrahydro-1H-imidazo[4,5-c]pyridine-2-carboxamido)-[1,1′-biphenyl]-3-yl)carbamoyl)-1-methyl-1,4,6,7-tetrahydro-5H-imidazo[4,5-c]pyridin-5-yl)ethyl)cyclohexane-1-carboxylic acid]
Cn1c(C(=O)Nc2cccc(-c3cccc(NC(=O)c4nc5c(n4C)CCN(C4CCC(C)(C(=O)O)CC4)C5)c3Cl)c2Cl)nc2c1CCN(C1CCOCC1)C2 (stereo not shown) [Example 98, 4-(2-((2,2′-dichloro-3′-(1-methyl-5-(tetrahydro-2H-pyran-4-yl)-4,5,6,7-tetrahydro-1H-imidazo[4,5-c]pyridine-2-carboxamido)-[1,1′-biphenyl]-3-yl)carbamoyl)-1-methyl-1,4,6,7-tetrahydro-5H-imidazo[4,5-c]pyridin-5-yl)-1-methylcyclohexane-1-carboxylic acid]
CCN1CCc2c(nc(C(=O)Nc3cccc(-c4cccc(NC(=O)c5nc6c(n5C)CCN(CC[C@H]5CC[C@H](C(=O)O)CC5)C6)c4Cl)c3C)n2C)C1 [Example 127, trans-4-(2-(2-((2-chloro-3′-(5-ethyl-1-methyl-4,5,6,7-tetrahydro-1H-imidazo[4,5-c]pyridine-2-carboxamido)-2′-methyl-[1,1′-biphenyl]-3-yl)carbamoyl)-1-methyl-1,4,6,7-tetrahydro-5H-imidazo[4,5-c]pyridin-5-yl)ethyl)cyclohexane-1-carboxylic acid]
CCN1CCc2c(nc(C(=O)Nc3cccc(-c4cccc(NC(=O)c5nc6c(n5C)CCN(C5CCC(C)(C(=O)O)CC5)C6)c4C)c3Cl)n2C)C1 (stereo not shown) [Example 105, 4-(2-((2′-chloro-3′-(5-ethyl-1-methyl-4,5,6,7-tetrahydro-1H-imidazo[4,5-c]pyridine-2-carboxamido)-2-methyl-[1,1′-biphenyl]-3-yl)carbamoyl)-1-methyl-1,4,6,7-tetrahydro-5H-imidazo[4,5-c]pyridin-5-yl)-1-methylcyclohexane-1-carboxylic acid]
CN1CCc2c(nc(C(=O)Nc3cccc(-c4cccc(NC(=O)c5nc6c(n5C)CCN(CC57CCC(C(=O)O)(CC5)C7)C6)c4Cl)c3Cl)n2C)C1 [Example 84, 4-((2-((2,2′-dichloro-3′-(1,5-dimethyl-4,5,6,7-tetrahydro-1H-imidazo[4,5-c]pyridine-2-carboxamido)-[1,1′-biphenyl]-3-yl)carbamoyl)-1-methyl-1,4,6,7-tetrahydro-5H-imidazo[4,5-c]pyridin-5-yl)methyl)bicyclo[2.2.1]heptane-1-carboxylic acid]
C[C@@H](O)CN1CCc2c(nc(C(=O)Nc3cccc(-c4cccc(NC(=O)c5nc6c(n5C)CCN(C[C@H]5CC[C@H](C(=O)O)CC5)C6)c4Cl)c3Cl)n2C)C1 [Example 67, trans-4-((2-((2,2′-dichloro-3′-(5-((R)-2-hydroxypropyl)-1-methyl-4,5,6,7-tetrahydro-1H-imidazo[4,5-c]pyridine-2-carboxamido)-[1,1′-biphenyl]-3-yl)carbamoyl)-1-methyl-1,4,6,7-tetrahydro-5H-imidazo[4,5-c]pyridin-5-yl)methyl)cyclohexane-1-carboxylic acid]
